# Source: patent US9079970B2, “Methods and compositions for specific modulation of MCL-1” (Dana Farber Cancer Institute, Inc., priority 2008, dated 2015)
# “Also recorded” adds a separate entry of the source. Where a SMILES comes first, the peptide text is derived from it. Bridges are numbered along the chain shown (N, C = ends). [ ]: non-standard residue; d: D form. S5 = C=CCCC[C@](C)(N)C(=O)O
# Tests used:
# [1] = molecular target: recombinant BCL-XLΔC (Homo sapiens, UniProt Q07817); test: Fluorescence polarization direct binding of FITC-SAHBs to BCL-XLΔC; conditions: FPA
# Chain of recombinant BCL-XLΔC (Q07817 1-209, stated change not applied): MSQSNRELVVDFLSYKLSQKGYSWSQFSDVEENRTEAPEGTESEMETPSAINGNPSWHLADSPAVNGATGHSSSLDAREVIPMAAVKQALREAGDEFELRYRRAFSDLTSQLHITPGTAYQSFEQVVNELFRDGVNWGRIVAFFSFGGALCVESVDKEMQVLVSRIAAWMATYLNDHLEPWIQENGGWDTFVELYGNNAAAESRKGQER
# Method: (§1) Binding assays were performed as previously described (Pitter et al., Methods Enzymol 446, 387 (2008). Briefly, FITC-SAHB (50 nM) was added to serial dilutions of FPLC-purified recombinant protein in binding buffer (50 mM Tris, 100 mM NaCl, pH 8.0). For competition assays, serial dilutions of acetylated MCL-1 SAHBs were mixed with FITC-BAK SAHB (25 nM), followed by addition of MCL-1ΔNΔC (100 nM) diluted in binding buffer (50 mM Tris, 100 mM NaCl, pH 8.0). Multiwell plates were incubated in the dark at room temperature until equilibrium was reached and fluorescence polarization (mP units) was measured by microplate reader (SpectraMax, Molecular Devices). For direct binding experiments, dissociation constants (KD) were calculated by nonlinear regression analysis of dose-response curves using Prism software (Graphpad). For competition experiments, Ki values were determined by nonlinear regression analysis of dose-response curves using a one-site competition model.
# Recombinant carboxy-terminal deleted anti-apoptotic proteins were expressed using the pGEX-4T vector, and purified as described for rMCL-1. The purified proteins were incubated with FITC-SAHBs, and binding affinities were analyzed by fluorescence polarization assay as described above. […] Optionally, design and optimization of tailored SAHB compounds for anti-apoptotic targeting also employed computational modeling.
# [2] = system: recombinant BFL-1/A1ΔC; test: Fluorescence polarization direct binding of FITC-SAHBs to BFL-1/A1ΔC; conditions: FPA
# Method: as §1
# (§2) Compounds that bound MCL-1 with high affinity were analyzed for MCL-1 selectivity by measuring SAHB affinities for recombinant BCL-XLΔC, BCL-WΔC and BFL-1/A1ΔC (FIG. 8B). […] The purified proteins were incubated with FITC-SAHBs, and binding affinities were analyzed by fluorescence polarization assay as described above. […]
# [3] = system: recombinant BCL-wΔC; test: Fluorescence polarization direct binding of FITC-SAHBs to BCL-wΔC; conditions: FPA
# Method: as §1, §2
# [4] = system: MCL-1ΔNΔC, BCL-2ΔC, BCL-XLΔC, BCL-wΔC and BFL-1/A1ΔC; test: FPA selectivity across panel of anti-apoptotic proteins; type: binding; conditions: FPA against anti-apoptotic panel
# Method: as §1
# Compounds that bound MCL-1 with high affinity were analyzed for MCL-1 selectivity by measuring SAHB affinities for recombinant BCL-XLΔC, BCL-WΔC and BFL-1/A1ΔC (FIG. 8B). Recombinant carboxy-terminal deleted anti-apoptotic proteins were expressed using the pGEX-4T vector, and purified as described for rMCL-1. The purified proteins were incubated with FITC-SAHBs, and binding affinities were analyzed by fluorescence polarization assay as described above. […] Optionally, design and optimization of tailored SAHB compounds for anti-apoptotic targeting also employed computational modeling.
# After the experiments set forth above, further members of the library of stabilized alpha-helices of BCL-2 domains (SAHBs) modeled after the BH3 domains of BCL-2 family proteins were generated in order to identify potent and selective inhibitors of MCL-1. The native alpha-helical structure of BH3 domains was reinforced by incorporating non-natural amino acids containing olefin tethers at the (i, i+4) positions of the non-interacting face, followed by ruthenium catalyzed olefin metathesis to yield a panel of stapled BH3 domains (FIG. 7). Fluorescence polarization assays (FPA) were performed to measure the binding affinity of fluorescently labeled SAHBs for recombinant human MCL-1ΔNΔC (amino acids 172-320), a deletion construct that contains the BH3-binding pocket and affords enhanced expression, purity, and stability. […] To identify MCL-1-selective SAHBs, we first screened for recombinant BCL-XLΔC binding, which eliminated PUMA, BID, BIM, BOK, BAX, and BAK SAHBs and then for recombinant BFL1/A1ΔC binding, which eliminated NOXA SAHB.
# [5] = molecular target: T1, MCL-1/BAK interaction in U937 AML cells (Homo sapiens, UniProt Q07820); test: MCL-1 immunoprecipitation / BAK western in U937 cells; type: cell-based; conditions: MCL-1 co-immunoprecipitation
# T1 construct: MCL-1 over-expressing cancer cells, such as OPM2 multiple myeloma and U937 AML cells; endogenous in cells; host or cells: U937 AML cells
# T1 sequence (Q07820 whole entry): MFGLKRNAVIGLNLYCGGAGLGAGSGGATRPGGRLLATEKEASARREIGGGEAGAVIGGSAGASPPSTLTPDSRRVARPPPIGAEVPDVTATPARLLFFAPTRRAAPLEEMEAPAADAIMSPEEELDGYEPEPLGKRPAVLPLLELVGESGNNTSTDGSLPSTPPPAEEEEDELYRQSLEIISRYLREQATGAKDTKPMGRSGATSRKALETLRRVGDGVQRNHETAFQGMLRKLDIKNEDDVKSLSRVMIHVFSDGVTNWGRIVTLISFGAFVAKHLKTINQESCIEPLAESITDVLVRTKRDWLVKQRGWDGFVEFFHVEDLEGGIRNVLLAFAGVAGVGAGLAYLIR
# Method: After cellular lysis in 50 mM Tris (pH 7.4), 150 mM NaCl, 1 mM EDTA, 1% CHAPS and complete protease inhibitor pellet, cellular debris was pelleted at 14,000 g for 10 minutes at 4° C. The supernatant was incubated with pre-equilibrated protein A/G sepharose beads. The pre-cleared supernatant was treated with anti-MCL-1 antibody for 1.5 hours at 4° C. with rotation, followed by exposure to the protein A/G sepharose beads for 1 hour. The beads were pelleted and washed with lysis buffer for 10 minutes at 4° C. The washed beads were pelleted, heated to 90° C. for 10 minutes in SDS loading buffer, analyzed by SDS/PAGE, and immunoblotted for the known MCL-1 interactor, BAK. […] The SAHB-induced dissociation of MCL-1/BAK correlated with sensitization of U937 cells to apoptosis induction by a pro-apoptotic stimulus (see below).
# [6] = system: U937 AML cells; test: Cell viability by MTT assay, U937; type: cell-based; conditions: combined with low-dose BIM SAHB
# Text: A cell-based screen was used to evaluate the pro-apoptotic activity of MCL-1-targeting SAHBs in MCL-1-dependent hematologic cancer cell lines, including U937 (histiocytic lymphoma), Pfeiffer (diffuse large B-cell lymphoma), OCI-AML3 (acute myeloid leukemia), K562 (chronic myelogenous leukemia) and OPM-2 (multiple myeloma) cells.
# [7] = system: Jurkat cells; test: Live confocal microscopy of cellular uptake and localization; type: cell-based; conditions: FITC-SAHB
# Method: In addition to FACS-based analysis, live confocal microscopy was used to visualize cellular uptake and intracellular localization of MCL-1 targeting SAHBs. For live confocal microscopy, Jurkat cells were incubated with FITC-SAHB and live cell organelle markers (e.g., dextran to label pinosomes, Mitotracker to label mitochondria). At defined time points (e.g., 4, 8, 12, and 24 hours), cells were washed twice with PBS, resuspended in PBS, wet mounted and imaged by confocal microscopy. […] Cell permeability and intracellular targeting can also be optimized through site-directed mutagenesis; for example, converting negatively charged residues to neutral or positively charged residues (e.g. SEQ ID NO: 39) can enhance cellular uptake as was previously reported (Bernal et al JACS, 2007).
smiles,measurement,setting,value
CC(C)C[C@H](NC(=O)[C@H](CCCCN)NC(=O)[C@H](CCC(N)=O)NC(=O)[C@H](CCCNC(=N)N)NC(=O)[C@H](Cc1ccccc1)NC(=O)[C@H](CC(N)=O)NC(=O)[C@H](CC(C)C)NC(=O)[C@]1(C)CCCC=CCCC[C@](C)(NC(=O)[C@H](CCCNC(=N)N)NC(=O)[C@H](CC(C)C)NC(=O)[C@H](CCC(N)=O)NC(=O)[C@@H](NC(=O)[C@H](C)NC(=O)[C@H](CO)NC(=O)[C@H](CCC(=O)O)NC(=O)[C@@H](NC(=O)[C@H](CCC(=O)O)NC(=O)[C@@H](N)CC(C)C)C(C)C)[C@@H](C)O)C(=O)N[C@@H](Cc2ccccc2)C(=O)NCC(=O)N[C@@H](CC(=O)O)C(=O)N1)C(N)=O [NOXA SAHB] (H-LEVESATQLR[S5]FGD[S5]LNFRQKL-NH2; staple 11-15; C-terminus assumed),BCL-XL binding,[1],did not engage
same,BFL-1/A1 binding,[2],eliminated; also recorded: did not engage
same,BCL-w binding,[3],did not engage
same,binding selectivity among anti-apoptotic proteins,[4],striking selectivity for MCL-1ΔNΔC; also recorded: selective for MCL-1
same,dissociation of MCL-1/BAK interaction in U937 cells,[5],disrupts the MCL-1/BAK interaction
same,sensitization of U937 cells to BIM SAHB,[6],"dose-responsively sensitizes chemoresistant U937 AML cells to low-dose, pro-apoptotic BIM SAHB"
same,cellular uptake and intracellular localization,[7],striking fluorescence of pinosomes at early time points and subsequent colocalization with Mitotracker
